Reference: patent publication US20240043427A1 (Gilead Sciences, Inc., priority 2020, published 2024)
pEC50, pIC50: −log10 of the molar value. Values joined by “and” are separate entries in the source; they are usually repeats but may differ in a detail not shown here. Identical values can stand only once.

Key:
[1] = target: T1, CD73 (Homo sapiens (Human), UniProt P21589); test: CD73 Biochemical IC50 Assay; conditions: CD73 0.3 nM, AMP 15 uM, 25 mM Tris pH 7.4, 5 mM MgCl2
Procedure: CD73 Biochemical IC50 Assay
Compound serial dilutions were pre-spotted into Thermo Nunc assay plate. 50 μL CD73 enzyme buffer (CD73 purchased from R&D system=0.6 nM, 25 mM Tris, pH 7.4, 5 mM MgCl2) was added into the assay plate and incubated for 15 mins. […] The samples were run using Rapid fire.

[2] = target: T1, CD73; test: MDA-MB-231 Cell Based CD73 Activity Assay; conditions: MDA-MB-231-GFP cells, RPMI medium with 10% human plasma, 200 uM AMP
Procedure: MDA-MB-231 Cell Based CD73 Activity Assay
MDA-MB-231-GFP cells were seeded in 384-well plates (Greiner 781946) at a density of 10000 cells per well in 50 μL of RPMI medium with 10% HP (human plasma). Cells were plated into assay plate with compounds pre-spotted, for an overnight compound treatment. 50 μL of 400 μM AMP (final concentration 200 μM) using a Bio-tek dispenser. Plates were incubated for 100 mins. […] The samples were run using Rapid fire.

T1 sequence (P21589 27-574): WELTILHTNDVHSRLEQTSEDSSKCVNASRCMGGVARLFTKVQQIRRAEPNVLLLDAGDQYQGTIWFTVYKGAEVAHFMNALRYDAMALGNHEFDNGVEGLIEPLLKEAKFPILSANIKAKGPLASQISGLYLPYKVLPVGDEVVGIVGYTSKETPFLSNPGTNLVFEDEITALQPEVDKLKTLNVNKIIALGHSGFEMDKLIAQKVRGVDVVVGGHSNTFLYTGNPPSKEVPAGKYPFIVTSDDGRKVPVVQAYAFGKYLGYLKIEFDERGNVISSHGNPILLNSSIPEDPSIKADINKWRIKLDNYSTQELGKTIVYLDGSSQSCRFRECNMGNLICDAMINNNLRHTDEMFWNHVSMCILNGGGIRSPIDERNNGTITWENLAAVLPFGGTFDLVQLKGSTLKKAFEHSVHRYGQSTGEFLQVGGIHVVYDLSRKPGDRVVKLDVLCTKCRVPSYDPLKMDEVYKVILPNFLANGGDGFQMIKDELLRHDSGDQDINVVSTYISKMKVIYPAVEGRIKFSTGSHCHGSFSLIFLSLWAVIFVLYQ

## O=c1[nH]cc(-c2cc([C@H]3C[C@@H]3c3cccc4ccccc34)c3nccn3n2)c(=O)[nH]1 (racemic) [Example 74, 5-[8-[(1S,2S)-2-(1-naphthyl)cyclopropyl]imidazo[1,2-b]pyridazin-6-yl]-1H-pyrimidine-2,4-dione and 5-[8-[(1R,2R)-2-(1-naphthyl)cyclopropyl]imidazo[1,2-b]pyridazin-6-yl]-1H-pyrimidine-2,4-dione]
[1]
  pIC50: 6.77
[2]
  pEC50: 6.27

## Cc1cn2nc(-c3c[nH]c(=O)[nH]c3=O)cc(C3CC3)c2n1 [Example 1, 5-(8-cyclopropyl-2-methyl-imidazo[1,2-b]pyridazin-6-yl)-1H-pyrimidine-2,4-dione]
[1]
  pIC50: 6.30
[2]
  pEC50: 6.38

## O=c1[nH]cc(-c2cc(N3CC4CCC(C4)C3)c3nccn3n2)c(=O)[nH]1 [Example 94, 5-(8-(3-azabicyclo[3.2.1]octan-3-yl)imidazo[1,2-b]pyridazin-6-yl)pyrimidine-2,4(1H,3H)-dione]
[1]
  pIC50: 6.88
[2]
  pEC50: 7.12

## CCOC(=O)c1cn2nc(-c3c[nH]c(=O)[nH]c3=O)cc(C3CC3)c2n1 [Example 3, Ethyl 8-cyclopropyl-6-(2,4-dioxo-1H-pyrimidin-5-yl)imidazo[1,2-b]pyridazine-2-carboxylate]
[1]
  pIC50: 6.63
[2]
  pEC50: 6.71

## O=c1[nH]cc(-c2cc(C3CC3)c3nc(-c4ccccn4)cn3n2)c(=O)[nH]1 [Example 103, 5-(8-cyclopropyl-2-(pyridin-2-yl)imidazo[1,2-b]pyridazin-6-yl)pyrimidine-2,4(1H,3H)-dione]
[1]
  pIC50: 7.15
[2]
  pEC50: 7.35

## CC(C)c1cc(-c2c[nH]c(=O)[nH]c2=O)nn2cnnc12 [Example 16, 5-(8-isopropyl-[1,2,4]triazolo[4,3-b]pyridazin-6-yl)pyrimidine-2,4(1H,3H)-dione]
[1]
  pIC50: 6.44
[2]
  pEC50: 6.48

## COC[C@H]1C[C@@H]1c1cc(-c2c[nH]c(=O)[nH]c2=O)nn2ccnc12 (racemic) [Example 4, 5-(8-((1S,2S)-2-(methoxymethyl)cyclopropyl)imidazo[1,2-b]pyridazin-6-yl)pyrimidine-2,4(1H,3H)-dione and 5-(8-((1R,2R)-2-(methoxymethyl)cyclopropyl)imidazo[1,2-b]pyridazin-6-yl)pyrimidine-2,4(1H,3H)-dione]
[1]
  pIC50: 6.71 and 6.64
[2]
  pEC50: 6.72 and 6.54

## O=c1[nH]cc(-c2cc(C3CC3)n3nccc3n2)c(=O)[nH]1 [Example 27, 5-(7-cyclopropylpyrazolo[1,5-a]pyrimidin-5-yl)pyrimidine-2,4(1H,3H)-dione]
[1]
  pIC50: 7.04
[2]
  pEC50: 6.84

## CC(C)(C)[C@H]1C[C@@H]1c1cc(-c2c[nH]c(=O)[nH]c2=O)nn2ccnc12 (racemic) [Example 6, 5-(8-((1S,2S)-2-(tert-butyl)cyclopropyl)imidazo[1,2-b]pyridazin-6-yl)pyrimidine-2,4-(1H,3H)-dione and 5-(8-((1R,2R)-2-(tert-butyl)cyclopropyl)imidazo[1,2-b]pyridazin-6-yl)pyrimidine-2,4-(1H,3H)-dione]
[1]
  pIC50: 6.79
[2]
  pEC50: 6.74

## N#Cc1ccc(C[C@H]2C[C@@H]2c2cc(-c3c[nH]c(=O)[nH]c3=O)nn3ccnc23)cc1 (racemic) [Example 111, 4-(41R,2S)-2-(6-(2,4-dioxo-1,2,3,4-tetrahydropyrimidin-5-yl)imidazo[1,2-b]pyridazin-8-yl)cyclopropyl)methyl)benzonitrile and 4-(((1S,2R)-2-(6-(2,4-dioxo-1,2,3,4-tetrahydropyrimidin-5-yl)imidazo[1,2-b]pyridazin-8-yl)cyclopropyl)methyl)benzonitrile]
[1]
  pIC50: 6.69
[2]
  pEC50: 7.15

## O=c1[nH]cc(-c2cc([C@H]3C[C@@H]3c3cccc(C(F)(F)F)c3)c3nccn3n2)c(=O)[nH]1 (racemic) [Example 41, 5-[8-[(1S,2S)-2-[3-(trifluoromethyl)phenyl]cyclopropyl]imidazo[1,2-b]pyridazin-6-yl]-1H-pyrimidine-2,4-dione and 5-[8-[(1R,2R)-2-[3-(trifluoromethyl)phenyl]cyclopropyl]imidazo[1,2-b]pyridazin-6-yl]-1H-pyrimidine-2,4-dione]
[1]
  pIC50: 7.21
[2]
  pEC50: 7.73

## O=c1[nH]cc(-c2cc(-c3ccc(NCC4CC4)cc3)c3nccn3n2)c(=O)[nH]1 [Example 71, 5-[8-[4-(cyclopropylmethylamino)phenyl]imidazo[1,2-b]pyridazin-6-yl]-1H-pyrimidine-2,4-dione]
[1]
  pIC50: 5.83
[2]
  pEC50: 6.19

## O=c1[nH]cc(-c2cc(C3CC3)c3nc(-c4cccnc4)cn3n2)c(=O)[nH]1 [Example 102, 5-(8-cyclopropyl-2-(pyridin-3-yl)imidazo[1,2-b]pyridazin-6-yl)pyrimidine-2,4(1H,3H)-dione]
[1]
  pIC50: 6.33
[2]
  pEC50: 6.59

## O=c1[nH]cc(-c2cc([C@H]3CC34CCC4)c3nccn3n2)c(=O)[nH]1 (racemic) [Example 5, (S)-5-(8-(spiro[2.3]hexan-1-yl)imidazo[1,2-b]pyridazin-6-yl)pyrimidine-2,4(1H,3H)-dione and (R)-5-(8-(spiro[2.3]hexan-1-yl)imidazo[1,2-b]pyridazin-6-yl)pyrimidine-2,4(1H,3H)-dione]
[1]
  pIC50: 5.81 and 5.60
[2]
  pEC50: 5.70 and 5.60

## O=c1[nH]cc(-c2cc(C3CC3)c3nc(C4CC4)cn3n2)c(=O)[nH]1 [Example 75, 5-(2,8-dicyclopropylimidazo[1,2-b]pyridazin-6-yl)-1H-pyrimidine-2,4-dione]
[1]
  pIC50: 6.90
[2]
  pEC50: 6.87

## O=c1[nH]cc(-c2cc(Cc3ccccc3)c3nccn3n2)c(=O)[nH]1 [Example 17, 5-(8-benzylimidazo[1,2-b]pyridazin-6-yl)-1H-pyrimidine-2,4-dione]
[1]
  pIC50: < 5.60
[2]
  pEC50: 5.43

## O=c1[nH]cc(-c2cc([C@H]3C[C@@H]3c3cc(F)ccc3F)c3nccn3n2)c(=O)[nH]1 (racemic) [Example 65, 5-(8-((1S,2S)-2-(2,5-difluorophenyl)cyclopropyl)imidazo[1,2-b]pyridazin-6-yl)pyrimidine-2,4(1H,3H)-dione and 5-(8-((1R,2R)-2-(2,5-difluorophenyl)cyclopropyl)imidazo[1,2-b]pyridazin-6-yl)pyrimidine-2,4(1H,3H)-dione]
[1]
  pIC50: 7.88
[2]
  pEC50: 8.17

## O=c1[nH]cc(-c2cc([C@H]3C[C@@H]3c3ccc(F)c(F)c3)c3ncc(F)n3n2)c(=O)[nH]1 [Example 90, 5-[8-[(1S,2S)-2-(3,4-difluorophenyl)cyclopropyl]-3-fluoro-imidazo[1,2-b]pyridazin-6-yl]-1H-pyrimidine-2,4-dione]
[1]
  pIC50: 8.00
[2]
  pEC50: 8.75

## O=c1[nH]cc(-c2cc(N3CCC3c3ccccc3)c3nccn3n2)c(=O)[nH]1 (centres unmarked) [Example 66, 5-(8-(2-phenylazetidin-1-yl)imidazo[1,2-b]pyridazin-6-yl)pyrimidine-2,4(1H,3H)-dione]
[1]
  pIC50: < 5.60
[2]
  pEC50: 5.35

## O=c1[nH]cc(-c2cc([C@H]3C[C@@H]3c3ccc(F)cc3F)c3ncc(F)n3n2)c(=O)[nH]1 [Example 88, 5-[8-[(1S,2S)-2-(2,4-difluorophenyl)cyclopropyl]-3-fluoro-imidazo[1,2-b]pyridazin-6-yl]-1H-pyrimidine-2,4-dione]
[1]
  pIC50: 8.04
[2]
  pEC50: 8.53

## O=c1[nH]cc(-c2cc([C@H]3C[C@@H]3c3ccc(F)cc3)c3ncc(F)n3n2)c(=O)[nH]1 (racemic) [Example 76, 5-[3-fluoro-8-[(1S,2S)-2-(4-fluorophenyl)cyclopropyl]imidazo[1,2-b]pyridazin-6-yl]-1H-pyrimidine-2,4-dione and 5-[3-fluoro-8-[(1R,2R)-2-(4-fluorophenyl)cyclopropyl]imidazo[1,2-b]pyridazin-6-yl]-1H-pyrimidine-2,4-dione]
[1]
  pIC50: 7.58
[2]
  pEC50: 8.61

## CC1(C)CCN(c2cc(-c3c[nH]c(=O)[nH]c3=O)nn3ccnc23)CC1 [Example 89, 5-[8-(4,4-dimethyl-1-piperidyl)imidazo[1,2-b]pyridazin-6-yl]-1H-pyrimidine-2,4-dione]
[1]
  pIC50: 6.67
[2]
  pEC50: 6.61

## CC(C)c1cc(-c2c[nH]c(=O)[nH]c2=O)nn2cc(C(F)(F)F)nc12 [Example 15, 5-(8-isopropyl-2-(trifluoromethyl)imidazo[1,2-b]pyridazin-6-yl)pyrimidine-2,4(1H,3H)-dione]
[1]
  pIC50: 5.63
[2]
  pEC50: 6.04

## O=c1[nH]cc(-c2cc(OC3CC3)c3nccn3n2)c(=O)[nH]1 [Example 24, 5-(8-cyclopropoxyimidazo[1,2-b]pyridazin-6-yl)pyrimidine-2,4(1H,3H)-dione]
[1]
  pIC50: 5.90
[2]
  pEC50: 5.91

## O=c1[nH]cc(-c2cc(N3CC(c4ccccc4)C3)c3nccn3n2)c(=O)[nH]1 [Example 59, 5-(8-(3-phenylazetidin-1-yl)imidazo[1,2-b]pyridazin-6-yl)pyrimidine-2,4(1H,3H)-dione]
[1]
  pIC50: 7.19
[2]
  pEC50: 7.14

## O=c1[nH]cc(-c2cc(OCc3ccccc3)c3nccn3n2)c(=O)[nH]1 [Example 26]
[1]
  pIC50: 6.79
[2]
  pEC50: 6.73

## O=c1[nH]cc(-c2cc(C3CCC(F)(F)CC3)c3nccn3n2)c(=O)[nH]1 [Example 14, 5-(8-(4,4-difluorocyclohexyl)imidazo[1,2-b]pyridazin-6-yl)pyrimidine-2,4(1H,3H)-dione]
[1]
  pIC50: 6.52
[2]
  pEC50: 7.10

## CC(C)Oc1cc(-c2c[nH]c(=O)[nH]c2=O)nn2ccnc12 [Example 25, 5-(8-isopropoxyimidazo[1,2-b]pyridazin-6-yl)pyrimidine-2,4(1H,3H)-dione]
[1]
  pIC50: 6.18 and 6.25
[2]
  pEC50: 6.44 and 6.37
